Data on 19 compounds can be found in PubChem BioAssay AID248 (DTP/NCI, 2004).

Structures are written as SMILES. Several values for one entry are separate records, joined by “and”; a condition that tells them apart may be missing. Identical values can stand only once. Toxic doses and inconclusive results are not listed.

For the assay, the system named is L1210 leukemia ip in BDF1 mice, survival T/C. Description: NCI In Vivo Anticancer Drug Screen. Data for tumor model L1210 Leukemia (intraperitoneal) in B6D2F1 (BDF1) mice. Conditions: endpoint: mean survival time, higher = longer survival. An outline of the steps:
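Survival endpoint. Drug-treated group vs vehicle group, expressed as T divided by C. Tumor passaged by transplantation.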

Where [1] appears, read: dose: 100.0 mg/kg/injection, schedule: Q01DX001 (ip), vehicle: other.
The mark [2] stands for this setting: dose: 200.0 mg/kg/injection, schedule: Q01DX001 (ip), vehicle: other.
Setting [3] is: dose: 400.0 mg/kg/injection, schedule: Q01DX001 (ip), vehicle: other.
The mark [4] stands for this setting: dose: 100.0 mg/kg/injection, schedule: Q01DX001 (ip), vehicle: carboxymethylcellulose (CMC).
[5] abbreviates: dose: 200.0 mg/kg/injection, schedule: Q01DX001 (ip), vehicle: carboxymethylcellulose (CMC).
Setting [6] is: dose: 400.0 mg/kg/injection, schedule: Q01DX001 (ip), vehicle: carboxymethylcellulose (CMC).
Where [7] appears, read: dose: 100.0 mg/kg/injection, schedule: Q01DX001 (ip), vehicle: Klucel (hydroxypropylcellulose) (HPC).
Where [8] appears, read: dose: 200.0 mg/kg/injection, schedule: Q01DX001 (ip), vehicle: Klucel (hydroxypropylcellulose) (HPC).
Setting [9] is: dose: 100.0 mg/kg/injection, schedule: Q01DX009 (ip), vehicle: saline with Tween-80.
The mark [10] stands for this setting: dose: 100.0 mg/kg/injection, schedule: Q04DX003 (ip), vehicle: saline with Tween-80.
The mark [11] stands for this setting: dose: 200.0 mg/kg/injection, schedule: Q01DX009 (ip), vehicle: saline with Tween-80.
Where [12] appears, read: dose: 200.0 mg/kg/injection, schedule: Q04DX003 (ip), vehicle: saline with Tween-80.
The mark [13] stands for this setting: dose: 400.0 mg/kg/injection, schedule: Q01DX009 (ip), vehicle: saline with Tween-80.
The mark [14] stands for this setting: dose: 400.0 mg/kg/injection, schedule: Q04DX003 (ip), vehicle: saline with Tween-80.

For the compound `Cc1cc(C)c2[nH]c(=O)c(Br)c(C)c2c1`, the T/C was 93 % of control under setting [1], 98 % of control under setting [2] and 106 % of control under setting [3].

Take `CC(C)OC(=O)CC#N`: the T/C runs as follows: (dose: 100.0 mg/kg/injection, schedule: Q01DX001 (ip), vehicle: saline) 103 % of control; (dose: 200.0 mg/kg/injection, schedule: Q01DX001 (ip), vehicle: saline) 103 % of control; (dose: 400.0 mg/kg/injection, schedule: Q01DX001 (ip), vehicle: saline) 103 % of control.

On to `COC1OCC(OCc2ccccc2)C(OCc2ccccc2)C1OCc1ccccc1` (centres undefined), for which the T/C is, setting by setting: under setting [4], 118 % of control; under setting [5], 98 % of control; under setting [6], 96 % of control.

Consider `CCCCCNC(=O)CCC(=O)NCCCCC`, for which the T/C reads like this: under setting [1], 98 % of control; under setting [2], 98 % of control; under setting [3], 98 % of control.

Consider `Nc1ccc2c(c1)-c1ccc(F)cc1C2=O`, for which the T/C was 91 % of control under setting [4], 91 % of control under setting [5] and 89 % of control under setting [6].

For the compound `CCN(CC)S(=O)(=O)/C=C\c1ccccc1`, the T/C runs as follows: (dose: 50.0 mg/kg/injection, schedule: Q04DX003 (ip), vehicle: Klucel (hydroxypropylcellulose) (HPC)) 96 % of control; under setting [7], 98 % of control; (dose: 100.0 mg/kg/injection, schedule: Q04DX003 (ip), vehicle: Klucel (hydroxypropylcellulose) (HPC)) 107 % of control; under setting [8], 107 % of control; (dose: 200.0 mg/kg/injection, schedule: Q04DX003 (ip), vehicle: Klucel (hydroxypropylcellulose) (HPC)) 102 % of control; (dose: 400.0 mg/kg/injection, schedule: Q01DX001 (ip), vehicle: Klucel (hydroxypropylcellulose) (HPC)) 102 % of control. In addition, the T/C (dose: 400.0 mg/kg/injection, schedule: Q04DX003 (ip), vehicle: Klucel (hydroxypropylcellulose) (HPC)) was 104 % of control.

As to `C[P+](c1ccc(Cl)cc1)(c1ccc(Cl)cc1)c1ccc(Cl)cc1`, the T/C (dose: 6.25 mg/kg/injection, schedule: Q04DX003 (ip), vehicle: saline) is 114 % of control; the T/C (dose: 12.5 mg/kg/injection, schedule: Q04DX003 (ip), vehicle: saline) was 109 % of control; the T/C (dose: 25.0 mg/kg/injection, schedule: Q04DX003 (ip), vehicle: saline) is 102 % of control.

In the case of `CCN(CC)c1ccc(-c2cc(NS(=O)(=O)c3ccccc3)ccc2NS(=O)(=O)c2ccccc2)cc1`, the T/C under setting [7] was 95 % of control.

As for `C[N+]1(C)C2CC(OC(=O)C(CO)c3ccccc3)CC1C1OC12` (centres undefined), the T/C (dose: 75.0 mg/kg/injection, schedule: Q01DX001 (ip), vehicle: other) is 106 % of control.

Consider `CC(=O)CC(=O)NC(C)CCc1ccccc1` (centres undefined), for which the T/C runs as follows: under setting [9], 92 % of control; under setting [10], 98 % of control; under setting [11], 92 % of control; under setting [12], 102 % of control; under setting [13], 104 % of control; under setting [14], 98 % of control.

In the case of `Brc1cccc(Br)n1`, the T/C (dose: 50.0 mg/kg/injection, schedule: Q01DX001 (ip), vehicle: other) was 101 % of control; the T/C under setting [1] is 121 % of control; the T/C (dose: 100.0 mg/kg/injection, schedule: Q04DX002 (ip), vehicle: saline with Tween-80) is 106 % of control; the T/C under setting [2] is 97 % of control; the T/C (dose: 200.0 mg/kg/injection, schedule: Q04DX002 (ip), vehicle: saline with Tween-80) was 93 % of control; the T/C under setting [3] is 101 % of control. The T/C (dose: 400.0 mg/kg/injection, schedule: Q04DX002 (ip), vehicle: saline with Tween-80) is 106 % of control.

In the case of `O=C1CCCN(c2ccccc2)c2ccccc21`, the T/C is, setting by setting: (dose: 100.0 mg/kg/injection, schedule: Q01DX009 (ip), vehicle: other) 100 % of control; (dose: 100.0 mg/kg/injection, schedule: Q04DX003 (ip), vehicle: other) 98 % of control; (dose: 200.0 mg/kg/injection, schedule: Q01DX009 (ip), vehicle: other) 98 % of control; (dose: 200.0 mg/kg/injection, schedule: Q04DX003 (ip), vehicle: other) 109 % of control; (dose: 400.0 mg/kg/injection, schedule: Q01DX009 (ip), vehicle: other) 96 % of control; (dose: 400.0 mg/kg/injection, schedule: Q04DX003 (ip), vehicle: other) 104 % of control.

With `CC(C)(C)c1ccc(OC(=S)N2CCOCC2)cc1`, the T/C reads like this: under setting [9], 98 % of control; under setting [10], 96 % of control; under setting [11], 107 % of control; under setting [12], 96 % of control; under setting [13], 102 % of control; under setting [14], 93 % of control.

Turning to `CCOC(=O)C(N)Cc1ccc(N(CCCl)CCCl)cc1` (centres undefined), the T/C (dose: 0.06 mg/kg/injection, schedule: Q01DX Z (ip), vehicle: saline) was 99 % of control; the T/C (dose: 0.13 mg/kg/injection, schedule: Q01DX Z (ip), vehicle: saline) is 124 % of control; the T/C (dose: 0.5 mg/kg/injection, schedule: Q01DX Z (oral), vehicle: saline) was 120 % of control; the T/C (dose: 2.0 mg/kg/injection, schedule: Q01DX Z (ip), vehicle: saline) was 122 % of control; the T/C (dose: 4.0 mg/kg/injection, schedule: Q01DX Z (ip), vehicle: saline) is 161 % of control and 190 % of control; the T/C (dose: 4.0 mg/kg/injection, schedule: Q01DX Z (oral), vehicle: saline) is 162 % of control and 168 % of control. Further, the T/C by setting is: (dose: 6.0 mg/kg/injection, schedule: Q01DX Z (ip), vehicle: saline) 160 % of control and 164 % of control and 202 % of control; (dose: 9.0 mg/kg/injection, schedule: Q01DX Z (ip), vehicle: saline) 162 % of control and 164 % of control and 172 % of control; (dose: 13.5 mg/kg/injection, schedule: Q01DX Z (ip), vehicle: saline) 165 % of control; (dose: 16.0 mg/kg/injection, schedule: Q01DX Z (oral), vehicle: saline) 87 % of control and 88 % of control; (dose: 20.0 mg/kg/injection, schedule: Q01DX Z (ip), vehicle: saline) 97 % of control.

In the case of `CC(CCC(C)(C)O)C1CCC2C3C(O)CC4CCCCC4(C)C3CC(O)C12C` (centres undefined), the T/C by setting is: under setting [10], 89 % of control; under setting [12], 91 % of control; under setting [14], 88 % of control.

On to `CC(C)CC(=O)NC(C)C(=O)NC(Cc1ccccc1)C(=O)CCl` (centres undefined), for which the T/C is, setting by setting: (dose: 12.0 mg/kg/injection, schedule: Q04DX002 (ip), vehicle: Klucel (hydroxypropylcellulose) (HPC)) 109 % of control; (dose: 25.0 mg/kg/injection, schedule: Q04DX002 (ip), vehicle: Klucel (hydroxypropylcellulose) (HPC)) 98 % of control; (dose: 50.0 mg/kg/injection, schedule: Q04DX002 (ip), vehicle: Klucel (hydroxypropylcellulose) (HPC)) 106 % of control.

As for `O=S(=O)(O)c1ccc(/C2=c3\cc/c([n-]3)=C(\c3ccc(S(=O)(=O)O)cc3)c3ccc([n-]3)/C(c3ccc(S(=O)(=O)O)cc3)=c3/cc/c([n-]3)=C(\c3ccc(S(=O)(=O)O)cc3)c3ccc2[n-]3)cc1.[Co]`, the T/C by setting is: (dose: 50.0 mg/kg/injection, schedule: Q01DX009 (ip), vehicle: saline) 97 % of control; (dose: 100.0 mg/kg/injection, schedule: Q01DX009 (ip), vehicle: saline) 113 % of control.

With `NC(=S)N/N=C(/c1cccs1)C1CC1`, the T/C is, setting by setting: (dose: 4.0 mg/kg/injection, schedule: Q01DX Z (ip), vehicle: carboxymethylcellulose (CMC)) 116 % of control; (dose: 4.0 mg/kg/injection, schedule: Q01DX Z (oral), vehicle: carboxymethylcellulose (CMC)) 97 % of control; (dose: 8.0 mg/kg/injection, schedule: Q01DX Z (ip), vehicle: carboxymethylcellulose (CMC)) 107 % of control; (dose: 8.0 mg/kg/injection, schedule: Q01DX Z (oral), vehicle: carboxymethylcellulose (CMC)) 115 % of control; (dose: 16.0 mg/kg/injection, schedule: Q01DX Z (oral), vehicle: carboxymethylcellulose (CMC)) 107 % of control.

For `Nc1ncnc2nc(-c3cccc([N+](=O)[O-])c3)[nH]c12`, the T/C was 100 % of control (dose: 50.0 mg/kg/injection, schedule: Q01DX001 (ip), vehicle: Klucel (hydroxypropylcellulose) (HPC)); 91 % of control under setting [7]; 88 % of control under setting [8].
